Tested on: NCI-H23 complex spheroids with HUVEC/MSC, viability
Test: Anticancer human tumor NCI-H23 cell line growth inhibition [RAS];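 further: spheroids exposed to compound for 7 days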;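 on viability, T/C: 100% = DMSO vehicle control viability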
Conditions: for IC50: curve of first compound; for viability, T/C: stronger effect = lower value
Procedure, shortened: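 Agents were tested in combination matrices in half-log decrements from a top concentration at or near clinical Cmax (10 microM if undetermined). Targets were multi-cell spheroids of tumour lines plus HUVEC and MSC stromal cells.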

[1] = second compound 0.00316 µM, first compound 0.0316 µM
[2] = second compound 0.00316 µM, first compound 0.1 µM
[3] = second compound 0.00316 µM, first compound 0.316 µM
[4] = second compound 0.00316 µM, first compound 1 µM
[5] = second compound 0.00316 µM, first compound 3.16 µM
[6] = second compound 0.00316 µM, first compound 10 µM
[7] = second compound 0.01 µM, first compound 0.0316 µM
[8] = second compound 0.01 µM, first compound 0.1 µM
[9] = second compound 0.01 µM, first compound 0.316 µM
[10] = second compound 0.01 µM, first compound 1 µM
[11] = second compound 0.01 µM, first compound 3.16 µM
[12] = second compound 0.01 µM, first compound 10 µM
[13] = second compound 0.0316 µM, first compound 0.0316 µM
[14] = second compound 0.0316 µM, first compound 0.1 µM
[15] = second compound 0.0316 µM, first compound 0.316 µM
[16] = second compound 0.0316 µM, first compound 1 µM
[17] = second compound 0.0316 µM, first compound 3.16 µM
[18] = second compound 0.0316 µM, first compound 10 µM
[19] = second compound 0.1 µM, first compound 0.0316 µM
[20] = second compound 0.1 µM, first compound 0.1 µM
[21] = second compound 0.1 µM, first compound 0.316 µM
[22] = second compound 0.1 µM, first compound 1 µM
[23] = second compound 0.1 µM, first compound 3.16 µM
[24] = second compound 0.1 µM, first compound 10 µM
[25] = second compound 0.316 µM, first compound 0.0316 µM
[26] = second compound 0.316 µM, first compound 0.1 µM
[27] = second compound 0.316 µM, first compound 0.316 µM
[28] = second compound 0.316 µM, first compound 1 µM
[29] = second compound 0.316 µM, first compound 3.16 µM
[30] = second compound 0.316 µM, first compound 10 µM
[31] = second compound 1 µM, first compound 0.0316 µM
[32] = second compound 1 µM, first compound 0.1 µM
[33] = second compound 1 µM, first compound 0.316 µM
[34] = second compound 1 µM, first compound 1 µM
[35] = second compound 1 µM, first compound 3.16 µM
[36] = second compound 1 µM, first compound 10 µM

CC(C)NCC(C(=O)N1CCN(c2ncnc3c2C(C)CC3O)CC1)c1ccc(Cl)cc1 (stereo unspecified) + C=CC(=O)N1CCN(c2nc(OCC3CCCN3C)nc3c(F)c(-c4nc(N)cc(C)c4C(F)(F)F)c(Cl)cc23)C(C)C1
IC50 (second compound 0.00316 µM): 0.548 µM | IC50 (second compound 0.01 µM): 0.0859 µM | IC50 (second compound 0.0316 µM): < 0.0316 µM | IC50 (second compound 0.1 µM): < 0.0316 µM | IC50 (second compound 0.316 µM): < 0.0316 µM | IC50 (second compound 1 µM): < 0.0316 µM | viability, T/C [1]: 57.1% | viability, T/C [2]: 67.7% | viability, T/C [3]: 51.7% | viability, T/C [4]: 45.4% | viability, T/C [5]: 33.4% | viability, T/C [6]: 29.2% | viability, T/C [7]: 52.5% | viability, T/C [8]: 54.5% | viability, T/C [9]: 39.5% | viability, T/C [10]: 37% | viability, T/C [11]: 28.4% | viability, T/C [12]: 20% | viability, T/C [13]: 39.1% | viability, T/C [14]: 48.1% | viability, T/C [15]: 31.2% | viability, T/C [16]: 30.2% | viability, T/C [17]: 24.3% | viability, T/C [18]: 16.9% | viability, T/C [19]: 39.3% | viability, T/C [20]: 39.4% | viability, T/C [21]: 29.9% | viability, T/C [22]: 25.8% | viability, T/C [23]: 20.2% | viability, T/C [24]: 18.8% | viability, T/C [25]: 37% | viability, T/C [26]: 34.2% | viability, T/C [27]: 28.9% | viability, T/C [28]: 23.1% | viability, T/C [29]: 21.3% | viability, T/C [30]: 17.9% | viability, T/C [31]: 34.9% | viability, T/C [32]: 37.1% | viability, T/C [33]: 34.2% | viability, T/C [34]: 26.1% | viability, T/C [35]: 23.3% | viability, T/C [36]: 16.6%

CC(C)n1nc(-c2ccc3oc(N)nc3c2)c2c(N)ncnc21 + C=CC(=O)N1CCN(c2nc(OCC3CCCN3C)nc3c(F)c(-c4nc(N)cc(C)c4C(F)(F)F)c(Cl)cc23)C(C)C1
IC50 (second compound 0.00316 µM): 0.00325 µM | IC50 (second compound 0.01 µM): 0.000445 µM | IC50 (second compound 0.0316 µM): < 0.000316 µM | IC50 (second compound 0.1 µM): < 0.000316 µM | IC50 (second compound 0.316 µM): < 0.000316 µM | IC50 (second compound 1 µM): < 0.000316 µM | viability, T/C (second compound 0.00316 µM, first compound 0.000316 µM): 58.9% | viability, T/C (second compound 0.00316 µM, first compound 0.001 µM): 68.7% | viability, T/C (second compound 0.00316 µM, first compound 0.00316 µM): 45.9% | viability, T/C (second compound 0.00316 µM, first compound 0.01 µM): 35.2% | viability, T/C [1]: 27.3% | viability, T/C [2]: 17.7% | viability, T/C (second compound 0.01 µM, first compound 0.000316 µM): 52.1% | viability, T/C (second compound 0.01 µM, first compound 0.001 µM): 44.1% | viability, T/C (second compound 0.01 µM, first compound 0.00316 µM): 35.5% | viability, T/C (second compound 0.01 µM, first compound 0.01 µM): 25.7% | viability, T/C [7]: 21.2% | viability, T/C [8]: 16.9% | viability, T/C (second compound 0.0316 µM, first compound 0.000316 µM): 39.7% | viability, T/C (second compound 0.0316 µM, first compound 0.001 µM): 43.7% | viability, T/C (second compound 0.0316 µM, first compound 0.00316 µM): 28.2% | viability, T/C (second compound 0.0316 µM, first compound 0.01 µM): 26.2% | viability, T/C [13]: 17.3% | viability, T/C [14]: 16.9% | viability, T/C (second compound 0.1 µM, first compound 0.000316 µM): 37.8% | viability, T/C (second compound 0.1 µM, first compound 0.001 µM): 32.5% | viability, T/C (second compound 0.1 µM, first compound 0.00316 µM): 26.3% | viability, T/C (second compound 0.1 µM, first compound 0.01 µM): 23.8% | viability, T/C [19]: 17.9% | viability, T/C [20]: 14.2% | viability, T/C (second compound 0.316 µM, first compound 0.000316 µM): 30.6% | viability, T/C (second compound 0.316 µM, first compound 0.001 µM): 38.3% | viability, T/C (second compound 0.316 µM, first compound 0.00316 µM): 29.5% | viability, T/C (second compound 0.316 µM, first compound 0.01 µM): 22.3% | viability, T/C [25]: 17.1% | viability, T/C [26]: 15.8% | viability, T/C (second compound 1 µM, first compound 0.000316 µM): 27.9% | viability, T/C (second compound 1 µM, first compound 0.001 µM): 33.8% | viability, T/C (second compound 1 µM, first compound 0.00316 µM): 32.2% | viability, T/C (second compound 1 µM, first compound 0.01 µM): 25.9% | viability, T/C [31]: 22.5% | viability, T/C [32]: 16.2%

C[C@@H](NC(=O)c1ncnc(N)c1Cl)c1ncc(C(=O)Nc2cc(C(F)(F)F)c(Cl)cn2)s1 + C=CC(=O)N1CCN(c2nc(OCC3CCCN3C)nc3c(F)c(-c4nc(N)cc(C)c4C(F)(F)F)c(Cl)cc23)C(C)C1
IC50 (second compound 0.00316 µM): > 10 µM | IC50 (second compound 0.01 µM): 0.201 µM | IC50 (second compound 0.0316 µM): < 0.0316 µM | IC50 (second compound 0.1 µM): < 0.0316 µM | IC50 (second compound 0.316 µM): < 0.0316 µM | IC50 (second compound 1 µM): < 0.0316 µM | viability, T/C [1]: 72.2% | viability, T/C [2]: 79.4% | viability, T/C [3]: 61.5% | viability, T/C [4]: 63.1% | viability, T/C [5]: 63.2% | viability, T/C [6]: 59.6% | viability, T/C [7]: 60.9% | viability, T/C [8]: 53.3% | viability, T/C [9]: 47.8% | viability, T/C [10]: 44.7% | viability, T/C [11]: 45.8% | viability, T/C [12]: 52.4% | viability, T/C [13]: 43.6% | viability, T/C [14]: 49% | viability, T/C [15]: 38.9% | viability, T/C [16]: 38.6% | viability, T/C [17]: 42% | viability, T/C [18]: 40.4% | viability, T/C [19]: 43.3% | viability, T/C [20]: 46.5% | viability, T/C [21]: 36.2% | viability, T/C [22]: 42.2% | viability, T/C [23]: 45.9% | viability, T/C [24]: 39.1% | viability, T/C [25]: 42.1% | viability, T/C [26]: 37.3% | viability, T/C [27]: 40.8% | viability, T/C [28]: 40.6% | viability, T/C [29]: 42.7% | viability, T/C [30]: 41% | viability, T/C [31]: 36.4% | viability, T/C [32]: 44.4% | viability, T/C [33]: 45.4% | viability, T/C [34]: 42% | viability, T/C [35]: 43.6% | viability, T/C [36]: 40.5%

— PubChem BioAssay AID2060885 (Molecular Pharmacology Branch, DTP, NCI, 2025)
